“And” between values parts separate entries of the source, which are not always exact repeats. Equal entries are not always repeated. Inconclusive results and toxic doses are left out. Rule as the data show it: active = T/C of 150% or more; inactive = T/C below 125%.
System: L1210 leukemia ip in BDF1 mice, survival T/C
Experiment: NCI In Vivo Anticancer Drug Screen. Data for tumor model L1210 Leukemia (intraperitoneal) in B6D2F1 (BDF1) mice
Conditions: endpoint: mean survival time, higher = longer survival
In short: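 Each compound was tested against a transplantable tumor grown in mice. The endpoint was survival, with treated animals benchmarked against vehicle controls as a simple ratio.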

[1] = dose: 100.0 mg/kg/injection, schedule: Q01DX001 (ip), vehicle: saline
[2] = dose: 200.0 mg/kg/injection, schedule: Q01DX001 (ip), vehicle: saline
[3] = dose: 400.0 mg/kg/injection, schedule: Q01DX001 (ip), vehicle: saline
[4] = dose: 100.0 mg/kg/injection, schedule: Q01DX001 (ip), vehicle: Klucel (hydroxypropylcellulose) (HPC)
[5] = dose: 200.0 mg/kg/injection, schedule: Q01DX001 (ip), vehicle: Klucel (hydroxypropylcellulose) (HPC)
[6] = dose: 400.0 mg/kg/injection, schedule: Q01DX001 (ip), vehicle: Klucel (hydroxypropylcellulose) (HPC)

Measured: T/C

CCOC(=O)N/N=C(/C)c1cccc([N+](=O)[O-])c1
inactive: dose: 25.0 mg/kg/injection, schedule: Q01DX009 (ip), vehicle: Klucel (hydroxypropylcellulose) (HPC) 103 % of control | dose: 50.0 mg/kg/injection, schedule: Q01DX009 (ip), vehicle: Klucel (hydroxypropylcellulose) (HPC) 103 % of control | dose: 100.0 mg/kg/injection, schedule: Q01DX009 (ip), vehicle: Klucel (hydroxypropylcellulose) (HPC) 100 % of control and 111 % of control

Oc1ccc(-c2nnc(-c3ccccc3)nn2)cc1
inactive: dose: 100.0 mg/kg/injection, schedule: Q04DX003 (ip), vehicle: gum acacia 104 % of control | dose: 200.0 mg/kg/injection, schedule: Q04DX003 (ip), vehicle: gum acacia 95 % of control | dose: 400.0 mg/kg/injection, schedule: Q04DX003 (ip), vehicle: gum acacia 95 % of control

COc1ccc(C(CC(=O)c2ccccc2)CC(=O)c2ccccc2)cc1
inactive: dose: 400.0 mg/kg/injection, schedule: Q04DX003 (ip), vehicle: saline with Tween-80 87 % of control

O=[N+]([O-])c1ccc(C2OC(c3ccncc3)=NC2CO)cc1 (configuration not stated)
inactive: dose: 12.5 mg/kg/injection, schedule: Q04DX002 (ip), vehicle: saline 90 % of control | dose: 25.0 mg/kg/injection, schedule: Q04DX002 (ip), vehicle: saline 97 % of control | dose: 50.0 mg/kg/injection, schedule: Q01DX009 (ip), vehicle: saline 96 % of control | dose: 50.0 mg/kg/injection, schedule: Q04DX002 (ip), vehicle: saline 90 % of control | dose: 75.0 mg/kg/injection, schedule: Q01DX009 (ip), vehicle: saline 102 % of control | dose: 115.0 mg/kg/injection, schedule: Q01DX009 (ip), vehicle: saline 101 % of control

CC1(C)CCC2(C(=O)O)CCC3=C(C(CCl)CC4C3(C)CCC3C4(C)CC(O)C(O)C3(C)C(=O)O)C2C1 (configuration not stated)
inactive: dose: 25.0 mg/kg/injection, schedule: Q01DX Z (ip), vehicle: carboxymethylcellulose (CMC) 96 % of control | dose: 50.0 mg/kg/injection, schedule: Q01DX Z (ip), vehicle: carboxymethylcellulose (CMC) 91 % of control | dose: 75.0 mg/kg/injection, schedule: Q01DX Z (ip), vehicle: carboxymethylcellulose (CMC) 97 % of control | dose: 125.0 mg/kg/injection, schedule: Q01DX Z (ip), vehicle: carboxymethylcellulose (CMC) 94 % of control

CCCCOC(=O)c1ccc(O)c(OC)c1
inactive: [1] 100 % of control | [2] 105 % of control | [3] 102 % of control

ClCC[n+]1csc2ccccc21
inactive: dose: 10.0 mg/kg/injection, schedule: Q01DX Z (ip), vehicle: saline 91 % of control | dose: 30.0 mg/kg/injection, schedule: Q01DX Z (ip), vehicle: saline 94 % of control | dose: 100.0 mg/kg/injection, schedule: Q01DX Z (ip), vehicle: saline 96 % of control | dose: 300.0 mg/kg/injection, schedule: Q01DX Z (ip), vehicle: saline 110 % of control

CCOc1cc(C=Nc2cccc(C(F)(F)F)c2)ccc1O
inactive: dose: 100.0 mg/kg/injection, schedule: Q01DX009 (ip), vehicle: other 100 % of control | dose: 100.0 mg/kg/injection, schedule: Q04DX003 (ip), vehicle: other 95 % of control | dose: 200.0 mg/kg/injection, schedule: Q01DX009 (ip), vehicle: other 99 % of control | dose: 200.0 mg/kg/injection, schedule: Q04DX003 (ip), vehicle: other 90 % of control | dose: 400.0 mg/kg/injection, schedule: Q04DX003 (ip), vehicle: other 92 % of control

C1CNCOC1
inactive: dose: 100.0 mg/kg/injection, schedule: Q04DX003 (ip), vehicle: saline 105 % of control | dose: 200.0 mg/kg/injection, schedule: Q04DX003 (ip), vehicle: saline 111 % of control

[NH-]CC([NH-])=O.[NH-]CC([NH-])=O.[Ni]
inactive: dose: 3.12 mg/kg/injection, schedule: Q01DX009 (ip), vehicle: water 96 % of control | dose: 6.25 mg/kg/injection, schedule: Q01DX009 (ip), vehicle: water 100 % of control | dose: 12.5 mg/kg/injection, schedule: Q01DX009 (ip), vehicle: water 103 % of control

CCCCCCCCCCCCCCCCCCNC(=S)N/N=C/c1ccccc1[N+](=O)[O-]
inactive: dose: 111.0 mg/kg/injection, schedule: Q01DX Z (ip), vehicle: methylcellulose (MC) 90 % of control | dose: 166.0 mg/kg/injection, schedule: Q01DX Z (ip), vehicle: methylcellulose (MC) 86 % of control

COC(=O)CCC1CCC(=O)C1 (configuration not stated)
inactive: dose: 37.5 mg/kg/injection, schedule: Q04DX002 (ip), vehicle: saline with Tween-80 95 % of control | dose: 75.0 mg/kg/injection, schedule: Q04DX002 (ip), vehicle: saline with Tween-80 95 % of control | dose: 150.0 mg/kg/injection, schedule: Q04DX002 (ip), vehicle: saline with Tween-80 98 % of control | dose: 300.0 mg/kg/injection, schedule: Q04DX002 (ip), vehicle: saline with Tween-80 95 % of control

CCCCCCC(CCC1CCCCC1)C(=O)O (configuration not stated)
inactive: dose: 100.0 mg/kg/injection, schedule: Q01DX001 (ip), vehicle: saline with Tween-80 88 % of control | dose: 200.0 mg/kg/injection, schedule: Q01DX001 (ip), vehicle: saline with Tween-80 96 % of control | dose: 400.0 mg/kg/injection, schedule: Q01DX001 (ip), vehicle: saline with Tween-80 92 % of control

CC(C)NC(=O)NC(C)C
inactive: [4] 100 % of control | [5] 96 % of control | [6] 94 % of control

Cc1ccc2cccc(O)c2n1
inactive: dose: 12.5 mg/kg/injection, schedule: Q04DX002 (ip), vehicle: Klucel (hydroxypropylcellulose) (HPC) 94 % of control | dose: 25.0 mg/kg/injection, schedule: Q04DX002 (ip), vehicle: Klucel (hydroxypropylcellulose) (HPC) 88 % of control | dose: 50.0 mg/kg/injection, schedule: Q04DX002 (ip), vehicle: Klucel (hydroxypropylcellulose) (HPC) 102 % of control

CCOC(=O)C1=C2c3ccc4ccccc4c3CCC2(C)C(=O)C1 (configuration not stated)
inactive: dose: 75.0 mg/kg/injection, schedule: Q01DX001 (sc), vehicle: steriod suspending solution 98 % of control | dose: 75.0 mg/kg/injection, schedule: Q01DX009 (sc), vehicle: steriod suspending solution 106 % of control | dose: 150.0 mg/kg/injection, schedule: Q01DX001 (sc), vehicle: steriod suspending solution 103 % of control | dose: 150.0 mg/kg/injection, schedule: Q01DX009 (sc), vehicle: steriod suspending solution 101 % of control | dose: 300.0 mg/kg/injection, schedule: Q01DX001 (sc), vehicle: steriod suspending solution 93 % of control | dose: 300.0 mg/kg/injection, schedule: Q01DX009 (sc), vehicle: steriod suspending solution 105 % of control

Cn1nc(N)c2cc3c(=O)[nH]cnc3nc21
inactive: [4] 96 % of control | [5] 104 % of control | [6] 101 % of control

[S-]c1n[n+](-c2ccccc2)cs1
inactive: [1] 97 % of control | [2] 95 % of control | [3] 92 % of control

CC(C)=NNC(=O)CNc1ccc(Cl)c(C(F)(F)F)c1
inactive: dose: 100.0 mg/kg/injection, schedule: Q04DX002 (ip), vehicle: Klucel (hydroxypropylcellulose) (HPC) 97 % of control | dose: 200.0 mg/kg/injection, schedule: Q04DX002 (ip), vehicle: Klucel (hydroxypropylcellulose) (HPC) 104 % of control | dose: 400.0 mg/kg/injection, schedule: Q04DX002 (ip), vehicle: Klucel (hydroxypropylcellulose) (HPC) 111 % of control

COc1ccc(C=Nc2ccc(C(=O)O)cc2)cc1
inactive: dose: 100.0 mg/kg/injection, schedule: Q04DX002 (ip), vehicle: saline with Tween-80 100 % of control | dose: 200.0 mg/kg/injection, schedule: Q04DX002 (ip), vehicle: saline with Tween-80 110 % of control | dose: 400.0 mg/kg/injection, schedule: Q04DX002 (ip), vehicle: saline with Tween-80 89 % of control

Source: PubChem BioAssay AID248 (DTP/NCI, 2004)
